Where “and” joins values, the source holds several entries; their conditions need not be identical. Equal entries are not always repeated. Where a SMILES comes first, the peptide text is derived from it.
Columns and labels:
[1] = tested on: Differentiated human macrophages; experiment: HMGB1-induced macrophage death, trypan blue uptake; format: cell-based; settings: 16 h; for Trypan blue uptake: individual replicates
Protocol: Human macrophage differentiation and treatment
Human PBMCs were differentiated into macrophages by culturing in human macrophage colony-stimulating factor (M-CSF, 20 ng/ml) for 5 – 6 d. Differentiated macrophages were maintained in Dulbecco’s modified Eagle’s medium supplemented with 1% penicillin/streptomycin and 10% human serum. Upon reaching 70 – 80% conflu ence, adh erent cells were wash ed and switched to Opti-MEM I before stimulation with recombinant HMGB1 (0.5 µg/ml) with or without P2- 1 (5.0 or 10 µg/ml) for 16 […]
Cell viability was assessed via the tryp an blue excl usion and lactat e dehyd ro genase (LDH) release method as previously described . For trypan blue exclusion, random phase-contr ast images were captur ed , and the percentage of nonviable, trypan blue-stained cells was calculated. LDH release in the culture medium was quantified with an LDH Ass ay Kit (Cat. #L7572, Pointe Scientific Inc., Canton, MI, USA) according to the manufacturer ’s instructions. Optical density was measured at 340 nm, and LDH content was expressed as a per centag e of maximal release in the presence of 2% Triton X-100. The experiments were performed 5 – 7 times ( n= 5 –7 biological replicates). […]

[2] = tested on: CAIA-induced joint cytokines and chemokines; experiment: Cytokine antibody arrays of joint tissue of CAIA mice; format: in vivo, mouse; design: VCAM1 / sTNFRI / sTNFRII / MIP-1gamma / MIP2 / P-selectin: unit not given here
Protocol: (§1) The levels of cytokines and chemokines in mouse serum and joint tissue lysates, or human PBMC culture supernatants, were determined via murine or human cytokine antibody arrays (e.g., Cat. #AAM-CYM-3–8 or Cat. #AAH-CYT-3–8, RayBiotech Inc., Norcross, GA, USA) as previously described. For the sepsis model, blood samples were collected from the mice (n = 4) at 24 h post-CLP. For the CAIA model, soft tissues from the hindpaw and ankle joints were carefully harvested from normal (n = 2) and CAIA (n = 4) mice using a previously established protocol. Briefly, 0.5 g of fresh soft tissue was cut into 3 mm pieces and mixed with 400 µl of a hypertonic solution (500 ml of PBS with 4.5 g of NaCl and 2 × protease inhibitor cocktail) in a 10 ml syringe. Mechanical extrusion, involving 30 rapid back-and-forth movements of the plunger, was then performed. The expelled extracellular fluid was collected, immediately aliquoted, and stored at −20 °C until analysis. Cell-conditioned medium was collected from PBMC cultures after 16 h of stimulation. Arrays were performed according to the manufacturer’s protocol, followed by chemiluminescent detection and densitometric quantification as previously described.
Fig. S5 Representative cytokine antibody arrays depicting the effect of P2- 1 on collagen antibody- induced
arthritis (CAIA)- induced joint inflammation. Representative images from cyt okine antibody arrays of j oint
tissue lysates from 4 vehicle-treated CAIA mice and 4 P2-1- treated CAIA mice (harvested on Day 10). […]

[3] = tested on: CLP-induced serum cytokines and chemokines; experiment: Serum cytokines/chemokines after CLP, murine cytokine antibody arrays; format: in vivo, mouse; design: BLC / G-CSF / GM-CSF / IL-6 / KC / MCP-1 / MIP-2 / MIP-1 gama / PF-4 / sTNF-RI: unit not given here; settings: for BLC / G-CSF / GM-CSF / IL-6 / KC / MCP-1 / MIP-1 gama / MIP-2 / PF-4 / sTNF-RI: serum 24 h, individual values
Protocol: Experimental sepsis was induced in BALB/c mice via CLP as previously described. […] The animals were randomly assigned to the control vehicle (n = 10 or n = 20) or experimental groups (n = 10 or n = 20). P2 (5.0 mg/kg), P2-1 (0.1 mg/kg or 1.0 mg/kg), or tetranectin N-terminal deletion mutant (ΔTN) (1.0 mg/kg) were administered intraperitoneally (i.p.) at the indicated time points, and survival rates were monitored. To elucidate P2-1’s protective mechanisms, a separate group of BALB/c mice (n = 4) underwent CLP and received P2-1 (1.0 mg/kg) at 2 h and 20 h post-CLP. At 24 h post-CLP, the animals were euthanized, blood was collected, and serum cytokines and chemokines were measured via murine cytokine antibody arrays as previously described. More details are presented in Additional file 1: Methods.
as §1
BALB/c mice subjected to CLP-induced sepsis received P2-1 (0.1 or 1.0 mg/kg) intraperitoneally twice, at 2 h and 20 h post-CLP. At 24 h post-CLP, the animals were sacrificed, and blood was harvested for cytokine and chemokine measurements via cytokine antibody arrays. ^*P < 0.05 vs. the negative control (“- CLP”); ^#P < 0.05 vs. the positive control (“ + CLP”) group, non-parametric Kruskal-Wallis ANOVA test. CLP cecal ligation and puncture, BLC B-lymphocyte chemoattractant, CCL C–C motif chemokine ligand, CXCL C-X-C motif chemokine ligand, IL interleukin, G-CSF granulocyte colony-stimulating factor, KC keratinocyte-derived chemokine, GRO growth-regulated oncogene, MIP macrophage inflammatory protein, PF platelet factor, sTNFR soluble tumor necrosis factor receptor

[4] = CAIA + P2-1, joint tissue Day 10, individual values, P = 0.00077753
[5] = CLP + P2-1 0.1 mg/kg, 0.1 mg/kg

CCCC[C@H](NC(=O)[C@H](Cc1c[nH]cn1)NC(=O)[C@@H](NC(=O)[C@H](CCCCN)NC(=O)[C@@H](N)[C@@H](C)O)C(C)C)C(=O)N[C@@H](CCCCN)C(=O)N[C@@H](CO)C(=O)N[C@@H](Cc1ccccc1)C(=O)N[C@@H](CC(C)C)C(=O)N[C@@H](C)C(=O)N[C@@H](Cc1ccccc1)C(=O)N[C@@H](CCC(N)=O)C(=O)N[C@H](C(=O)N[C@@H](CCCCN)C(=O)N[C@H](C(=O)O)[C@@H](C)O)[C@@H](C)O [P2-1] (HELM PEPTIDE1{T.K.V.H.[Nle].K.S.F.L.A.F.Q.T.K.T}$$$$V2.0; N-terminus and C-terminus assumed)
Trypan blue uptake ([1]; HMGB1 0.5 µg/ml + P2-1 5.0 μg/ml): 4.1% and 2.7% and 4.8% and 2.3% and 0.9% and 2.4% | Trypan blue uptake ([1]; HMGB1 0.5 µg/ml + P2-1 10.0 μg/ml): 2.9% and 0.8% and 3.8% and 1.1% and 4.2% and 3.6% and 2.4% | HMGB1-induced macrophage death, in words ([1]; trypan blue uptake and LDH release, HMGB1 0.5 µg/ml, P2-1 5.0 or 10 µg/ml): significantly inhibited HMGB1-induced macrophage death | VCAM1 ([2]; CAIA + P2-1, joint tissue Day 10, individual values, P = 0.0007706): 4 and 4.5 and 8.2 and 10.3 and 3.3 and 1.2 and 0.7 | sTNFRI [2, 4]: 23.4 and 20.4 and 17.4 and 17 and 24.9 and 22.3 and 40 and 36.8 | sTNFRII [2, 4]: 12.4 and 11.7 and 6.5 and 5.7 and 3.2 and 2.8 and 5.8 and 5.9 | MIP-1gamma ([2]; CAIA + P2-1, joint tissue Day 10, individual values, P = 0.00163): 39.6 and 44.2 and 29 and 33.7 and 41.8 and 44.8 and 49.9 and 50.4 | MIP2 ([2]; CAIA + P2-1, joint tissue Day 10, individual values, P = 0.02067): 2.5 and 2.7 and 4.3 and 4.8 and 5.9 and 7.2 and 5.1 and 5.2 | P-selectin ([2]; CAIA + P2-1, joint tissue Day 10, individual values, P = 0.04584): 3.6 and 4 and 3.4 and 5.3 and 5.6 and 7.5 and 8 | joint inflammation, in words ([2]; P2-1 prophylactic): significantly reducing joint levels of sTNFRI and sTNFRII, the chemokine MIP-1γ/CCL9, and VCAM-1 | joint tissue inflammation, in words ([2]; P2-1 therapeutic, sTNFRI, sTNFRII, MIP-1γ/CCL9, VCAM-1, Day 10): significantly reduced CAIA-induced joint tissue inflammation | BLC ([3]; CLP + P2-1 0.1 mg/kg i.p. 2 h and 20 h post-CLP, 0.1 mg/kg): 257.4 and 202.1 and 204.2 and 224.3 | G-CSF [3, 5]: 161.4 and 173.4 and 290.4 and 305.7 | GM-CSF [3, 5]: 23.2 and 56 and 52.8 and 13.6 | IL-6 [3, 5]: 59.36 and 56.19 and 57.95 and 55.32 | KC [3, 5]: 128.7 and 116.3 and 31.9 and 105.9 | MCP-1 [3, 5]: 25.4 and 25.6 and 31.2 and 21.8 | MIP-1 gama [3, 5]: 280.3 and 263.7 and 278.8 and 275.6 | MIP-2 [3, 5]: 203.2 and 193.1 and 174.2 and 159.2 | PF-4 [3, 5]: 302.3 and 268.3 and 285.4 and 298.4 | sTNF-RI [3, 5]: 143.4 and 116.1 and 179.9 and 149.3 | BLC ([3]; CLP + P2-1 1.0 mg/kg i.p. 2 h and 20 h post-CLP, 1 mg/kg): 42.8 and 33.1 and 30.9 and 35.4 | G-CSF ([3]; CLP + P2-1 1.0 mg/kg, 1 mg/kg): 111.9 and 128.7 and 120.4 and 100.4 | GM-CSF ([3]; CLP + P2-1 1.0 mg/kg, 1 mg/kg): 0.79 and 1.5 and 1.2 and 3.4 | IL-6 ([3]; CLP + P2-1 1.0 mg/kg, 1 mg/kg): 16.8 and 16.2 and 14.3 and 20.4 | KC ([3]; CLP + P2-1 1.0 mg/kg, 1 mg/kg): 151.9 and 155 and 10.5 and 15.5 | MCP-1 ([3]; CLP + P2-1 1.0 mg/kg, 1 mg/kg): 6.8 and 7.9 and 7.4 and 5.2 | MIP-1 gama ([3]; CLP + P2-1 1.0 mg/kg, 1 mg/kg): 128.6 and 137.5 and 54.5 and 68.8 | MIP-2 ([3]; CLP + P2-1 1.0 mg/kg, 1 mg/kg): 172.1 and 177.3 and 14.9 and 12.4 | PF-4 ([3]; CLP + P2-1 1.0 mg/kg, 1 mg/kg): 109.2 and 118.3 and 114.4 and 64.9 | sTNF-RI ([3]; CLP + P2-1 1.0 mg/kg, 1 mg/kg): 21.5 and 32.7 and 198.2 and 143.4 | sepsis-induced systemic cytokines/chemokines, in words ([3]; P2-1 i.p. at 2 h and 20 h post-CLP, blood at 24 h, BLC, G-CSF, IL-6, KC, MIP-1γ, MIP-2, PF-4, sTNFRI): significantly reduced sepsis-induced systemic accumulation

Reference: publication PMC12914960, “Repurposing a detrimental antibody epitope as targeted therapeutics for sepsis and rheumatoid arthritis” (Military Medical Research, 2026)
